Here are results for 22 compounds from US12065445B2, “CDK2 inhibitors and methods of using the same” (Cedilla Therapeutics, Inc., priority 2021, dated 2024).

In assay [1] the target is T1, CDK2/Cyclin E1 (Homo sapiens, UniProt P24941).
T1 construct: purchased Eurofins 14-475
Kind of assay: CDK2/Cyclin E1 Caliper Assay (LabChip EZ Reader mobility shift). In kind it is biochemical. The conditions noted are these: read-out: Caliper Assay (CDK2/CCNE1): IC50. As for the experimental part:
Inhibition of CDK2/Cyclin E1 activity in the presence of compounds of the present disclosure was evaluated using a Caliper LabChip® EZ Reader mobility shift assay. In the assay, CDK2/Cyclin E1 (Eurofins, 14-475) catalyzed the phosphorylation of a fluorescently tagged peptide 5-FAM-QSPKKG-CONH2 (PerkinElmer, FL Peptide 18) which induced a difference in capillary electrophoresis mobility. The peptide substrate and product were measured, and the conversion ratio was used to determine the inhibition (as % activity and IC50 values) of CDK2/Cyclin E1. Reactions contained 50 mM HEPES pH 7.5, 10 mM MgCl2, 1 mM EDTA, 2 mM DTT, 0.01% Brij35, 0.5 mg/mL BSA, 0.1% DMSO, 2.5 nM CDK2/Cyclin E1, 100 μM ATP, and 1.5 μM fluorescent peptide substrate.
Dose titrations of inhibitors in 100% DMSO were combined with 3.25 nM CDK2/Cyclin E1 and 130 μM of ATP in reaction buffer. The mixtures were incubated for 30 minutes before the addition of fluorescent peptide substrate to initiate the kinase reaction. The final conditions were 2.5 nM CDK2/Cyclin E1, 100 μM ATP, and 1.5 μM fluorescent peptide. The reactions were stopped after 100 minutes with the addition of EDTA (400 mM final EDTA concentration). The stopped reactions were analyzed on a Caliper LabChip® EZ Reader II. The conversion ratios were normalized to yield % activity, plotted against compound concentration, and fit to a four-parameter equation to determine the IC50 for each compound.

The subject of assay [2] is Kuramochi cells. Briefly: BrdU Cell Proliferation Assay. In kind it is cell-based. The conditions noted are these: read-out: BrdU - KURAMOCHI.1: IC50. A digest of the protocol:
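Signal is 450 nm absorbance from a peroxidase anti-BrdU ELISA after a 1-hour BrdU label, background-subtracted and normalized to DMSO-treated wells. Kuramochi cells (2,000 per well) had been exposed to compound for 4 days. Dosing used a 10-point dose response in 3-fold steps.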

Assay [3] relates to Kuramochi cells labeled with mApple-H2B. Briefly: IncuCyte Cell Proliferation Assay. In kind it is cell-based. A digest of the protocol: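 GI50 came from dose-response fits of cell-count fold change between 0 and 72 h, normalized to DMSO controls. Counts were fluorescent nuclei from live-cell images over a 10-point, ½ log series starting at 20 μM.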

Where only a bound is given, the exact number is not on record here.

As for `C[C@@H](OCC1CCCCC1)[C@H](NC(=O)[C@H]1CN(C(=O)c2cnn(Cc3ccccc3)c2)CC12CN(C(=O)[C@H]1CC1(C)C)C2)C(=O)N1CCC[C@H](N)C1` [I-150B], the IC50 is 1000 to 10000 nM in assay [1] and more than 10 µM in assay [2].

In the case of `C[C@@H](OCC1CCOCC1)[C@@H](COC(F)F)NC(=O)[C@@H]1CN(C(=O)c2cncs2)CC12CN(C(=O)[C@H]1CC1(C)C)C2` [I-441], the IC50 in assay [1] was 100 to 1000 nM; in assay [3] (72 h) it was more than 20 µM.

In the case of `C[C@@H](OCC1CCCCC1)[C@H](NC(=O)[C@H]1CN(C(=O)c2cncs2)CC12CN(C(=O)[C@H]1CC1(C)C)C2)C(=O)N1CCC(F)(F)CC1` [I-192B], the results for the IC50 in assay [1] and in assay [2] were 1000 to 10000 nM and more than 10 µM, respectively.

Turning to `CNC(=O)[C@@H](NC(=O)[C@@H]1CN(C(=O)c2cncs2)CC12CN(C(=O)[C@H]1CC1(C)C)C2)c1nnc(C2CCCCC2)o1` [I-429], the IC50 in assay [1] was 1000 to 10000 nM; in assay [2] it was more than 10 µM; in assay [3] (72 h), more than 20 µM.

Regarding `CC(=O)N[C@H]1CCCN(C(=O)[C@@H](NC(=O)[C@@H]2CN(C(=O)c3cncs3)CC23CN(C(=O)[C@H]2CC2(C)C)C3)[C@@H](C)OCC2CCCCC2)C1` [I-330], the IC50 is not above 10 nM in assay [1], 5 to 10 µM in assay [2] and 0.5 to 5 µM in assay [3] (72 h).

As to `C[C@@H](OCC1CCC(F)(F)CC1)[C@H](NC(=O)[C@@H]1CN(C(=O)c2cncs2)CC12CN(C(=O)[C@H]1CC1(C)C)C2)C(=O)N1CC2CCC(C1)O2` [I-469], the IC50 in assay [1] is not above 10 nM; in assay [2], 0.5 to 5 µM; in assay [3] (72 h), not above 0.5 µM.

With `CNC(=O)[C@@H](NC(=O)[C@H]1CN(CC2CCOCC2)CC12CN(C(=O)[C@H]1CC1(C)C)C2)[C@@H](C)OCc1ccccc1` [I-68B], the IC50 in assay [1] is more than 10000 nM; in assay [2] it was more than 10 µM.

Turning to `C[C@@H]1C[C@H](C)CN(C(=O)[C@@H](NC(=O)[C@H]2CN(C(=O)c3cn[nH]c3)CC23CN(C(=O)[C@H]2CC2(C)C)C3)[C@@H](C)OCC2CCCCC2)C1` [I-173B], the figures for the IC50 in assay [1] and in assay [2] were 1000 to 10000 nM and more than 10 µM, respectively.

`C[C@@H](OCc1ccccc1)[C@H](NC(=O)C1CN(C(=O)c2cnn(Cc3ccccc3)c2)CC12CN(C(=O)C1CC1(C)C)C2)C(=O)NCCCCCN` (stereo partly shown) [I-57]: the IC50 in assay [1] was 10 to 100 nM; in assay [2] it was more than 10 µM.

Consider `Cc1ccc(CNC(=O)[C@@H]2CN(C(=O)c3cnn(Cc4ccccc4F)c3)CC23CN(C(=O)[C@H]2CC2(C)C)C3)nn1` [I-407], for which the IC50 in assay [1] was more than 10000 nM; in assay [3] (72 h), more than 20 µM.

As to `C[C@@H](OCC1CCC(F)(F)CC1)[C@H](NC(=O)C1CN(C(=O)c2cnn(Cc3ccc(F)cc3)c2)CC12CN(C(=O)C1(C(F)(F)F)CC1)C2)C(=O)N1CCC(F)(F)CC1` (single isomer, unassigned) [I-190B], the IC50 in assay [1] lay in the range of 100 to 1000 nM; in assay [2], 0.5 to 5 µM; in assay [3] (72 hours), 5 to 20 µM.

Turning to `CNC(=O)[C@@H](NC(=O)[C@@H]1CN(Cc2cccnc2)CC12CN(C(=O)[C@H]1CC1(C)C)C2)[C@@H](C)OCc1ccccc1` [I-49A], the values for the IC50 in assay [1] and in assay [2] were more than 10000 nM and more than 10 µM, respectively.

For the compound `C[C@@H](OCC1CCCCC1)[C@H](NC(=O)[C@@H]1CN(C(=O)c2cnn(Cc3ccccc3)c2)CC12CN(C(=O)[C@H]1CC1(C)C)C2)C(=O)N1CCC[C@H](N)C1` [I-150A], the values for the IC50 in assay [1] and in assay [2] were not above 10 nM and 0.5 to 5 µM, respectively.

On to `CNC(=O)[C@@H](NC(=O)[C@@H]1CN(C(=O)c2cnn(Cc3ccccc3)c2)CC12CN(C(=O)C1(C(C)C)CC1)C2)[C@@H](C)OCc1ccccc1` [I-109A], for which the results for the IC50 in assay [1] and in assay [2] were more than 10000 nM and more than 10 µM, respectively.

Consider `C[C@@H](OCC1CCOCC1)[C@H](NC(=O)[C@@H]1CN(C(=O)c2cncs2)CC12CN(C(=O)[C@H]1CC1(C)C)C2)C(=O)N1CCC(c2ccncc2)CC1` [I-442], for which the IC50 was not above 10 nM in assay [1] and 5 to 20 µM in assay [3] (72 h).

Regarding `CNC(=O)[C@@H](NC(=O)[C@@H]1CN(C(=O)c2cnco2)CC12CN(C(=O)[C@H]1CC1(C)C)C2)[C@@H](C)OCc1ccccc1` [I-39A], the IC50 was 100 to 1000 nM in assay [1] and more than 10 µM in assay [2].

Regarding `C[C@@H]1C[C@H](C)CN(C(=O)[C@@H](NC(=O)[C@@H]2CN(C(=O)c3cn[nH]c3)CC23CN(C(=O)[C@H]2CC2(C)C)C3)[C@@H](C)OCC2CCCCC2)C1` [I-173A], the values for the IC50 in assay [1], in assay [2] and in assay [3] (72 h) were not above 10 nM, not above 0.5 µM and 0.5 to 5 µM, respectively.

For `C[C@@H](OCc1ccccc1)[C@H](NC(=O)C1CN(C(=O)c2cnn(Cc3ccccc3)c2)CC12CN(C(=O)C1CC1(C)C)C2)C(=O)NCCCCCNC(=O)OC(C)(C)C` (stereo partly shown) [I-52], the results for the IC50 in assay [1], in assay [2] and in assay [3] (72 h) were 10 to 100 nM, 0.5 to 5 µM and 0.5 to 5 µM, respectively.

Turning to `CNC(=O)[C@H](COCc1ccccc1)NC(=O)[C@H]1CN(C(=O)c2cnn(Cc3ccccc3)c2)CC12CN(C(=O)C1(C(F)(F)F)CC1)C2` [I-113B], the IC50 in assay [1] was more than 10000 nM; in assay [2], more than 10 µM.

Turning to `COCC1CCCN(C(=O)[C@@H](NC(=O)[C@H]2CN(C(=O)c3cnn(Cc4ccccc4)c3)CC23CN(C(=O)[C@H]2CC2(C)C)C3)[C@@H](C)OCC2CCCCC2)C1` (stereo partly shown) [I-111], the IC50 in assay [1] is 10 to 100 nM; in assay [2] it was not above 0.5 µM; in assay [3] (72 h), 0.5 to 5 µM.

As to `C[C@@H](OCC1CCCCC1)[C@H](NC(=O)[C@@H]1CN(C(=O)c2cncs2)CC12CN(C(=O)[C@H]1CC1(C)C)C2)C(=O)N1CCC(F)(F)CC1` [I-192A], the IC50 was not above 10 nM in assay [1], not above 0.5 µM in assay [2] and not above 0.5 µM in assay [3] (72 h).

In the case of `C[C@@H](OCC1CCC(F)(F)CC1)[C@H](NC(=O)[C@@H]1CN(C(=O)c2cncs2)CC12CN(C(=O)[C@H]1CC1(C)C)C2)C(=O)N1CCC(C)(C)CC1` [I-386], the IC50 in assay [2] and in assay [3] (72 h) was not above 0.5 µM each time.
